Results on six compounds are retold here after ChEMBL document CHEMBL4602620, “N,O-Dialkyl deoxynojirimycin derivatives as CERT START domain ligands” (Bioorg Med Chem Lett, 2020).

The target in assay [1] is T1, Ceramide transfer protein (Homo sapiens) (UniProt Q9Y5P4).
T1 sequence (whole entry): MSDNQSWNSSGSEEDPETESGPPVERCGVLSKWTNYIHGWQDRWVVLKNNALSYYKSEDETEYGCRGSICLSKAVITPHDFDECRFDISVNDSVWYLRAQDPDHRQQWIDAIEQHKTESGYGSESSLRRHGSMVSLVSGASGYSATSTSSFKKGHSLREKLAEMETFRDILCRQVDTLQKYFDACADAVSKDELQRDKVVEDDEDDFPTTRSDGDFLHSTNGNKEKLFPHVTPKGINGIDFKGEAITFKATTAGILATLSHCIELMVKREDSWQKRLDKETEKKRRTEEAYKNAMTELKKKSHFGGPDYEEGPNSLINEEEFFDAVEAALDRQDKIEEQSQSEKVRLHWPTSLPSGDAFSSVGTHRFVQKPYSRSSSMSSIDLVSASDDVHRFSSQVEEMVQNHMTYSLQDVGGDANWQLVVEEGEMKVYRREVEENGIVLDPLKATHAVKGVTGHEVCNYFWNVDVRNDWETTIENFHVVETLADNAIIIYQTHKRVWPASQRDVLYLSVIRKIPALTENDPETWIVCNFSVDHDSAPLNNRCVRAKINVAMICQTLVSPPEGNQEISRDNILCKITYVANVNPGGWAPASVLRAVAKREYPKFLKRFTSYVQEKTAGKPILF
In words: Displacement of fluorescent tagged ceramide from immobilized His-tagged CERT START domain (unknown origin) assessed as reduction in residual fluorescence activity by FLINT assay relative to control. On the set-up: concentration or dose not given beside the values. Particulars: concentration not given here.

Another assay concerns Saccharomyces cerevisiae. In words: Inhibition of Saccharomyces cerevisiae alpha-glucosidase at 0.2 mM relative to control.
The subject of the next assay is Prunus dulcis. As to the kind of experiment: Inhibition of almond beta-glucosidase at 0.2 mM relative to control.
The next assay relates to Aspergillus niger. In words: Inhibition of Aspergillus niger amyloglucosidase at 0.2 mM relative to control.

As to `CCCCCCCCCCCCO[C@H]1[C@H](O)[C@@H](O)CN(CCCCCCCCCCCC)[C@@H]1CO`, the inhibition (as a rule, the change of the read-out against control, counted positive when it falls) in assay [1] amounted to 20%; in the assay on Saccharomyces cerevisiae, 7.3%; in the assay with Prunus dulcis, 1.7%; with Aspergillus niger, 11%.

On to `CCCCCCCCCCCCC/C=C/[C@@H](O)[C@H](CO)NC(=O)CCCCCCCCCCCCCCC`, for which, in assay [1], the inhibition amounted to 25%.

Take `CCCCCCCCCCCC(=O)N[C@@H](CO)C[C@H](O)c1ccccc1`: the inhibition in assay [1] came to 25%.

Turning to `CCCCCCCCCCCCO[C@H]1CN(CCCCCCCCCCCC)C[C@@H](O)[C@@H]1O`, the inhibition in assay [1] stood at 25%.

As to `CCCCCCCCCCCCO[C@H]1CN(CCCCCCCCCCCC)[C@H](CO)[C@@H](O)[C@@H]1O`, the inhibition in assay [1] is 40%; in the assay with Saccharomyces cerevisiae, 5.1%; in the assay with Prunus dulcis it was 0.65%; with Aspergillus niger it was 6%.

For the compound `CCCCCCCCCCCCN1C[C@H](O)[C@@H](O)[C@H](O)[C@H]1CO`, the inhibition in assay [1] was determined as 25%; in the assay with Saccharomyces cerevisiae it was 13%; in the assay with Prunus dulcis, 39%; in the assay with Aspergillus niger, 88%.
